Reference: publication PMC10788917 (Journal of Medicinal Chemistry, 2023)
Where a chain is given by its changes, count along the chain named.

Columns and labels:
Experiment in all cases: HDAC8 mutant biochemical assay
[1] = target: T1, HDAC8 Cys102Ser/Cys153Ser/Cys131Ser (Homo sapiens, UniProt Q9BY41, C102S/C131S/C153S); settings: read-out: IC50 [μM] @ 100 nM HDAC8: D Cys102Ser/Cys153Ser/Cys131Ser, 1 h preincubation
T1 construct: made in house
T1 sequence (Q9BY41 1-377 C102S/C131S/C153S): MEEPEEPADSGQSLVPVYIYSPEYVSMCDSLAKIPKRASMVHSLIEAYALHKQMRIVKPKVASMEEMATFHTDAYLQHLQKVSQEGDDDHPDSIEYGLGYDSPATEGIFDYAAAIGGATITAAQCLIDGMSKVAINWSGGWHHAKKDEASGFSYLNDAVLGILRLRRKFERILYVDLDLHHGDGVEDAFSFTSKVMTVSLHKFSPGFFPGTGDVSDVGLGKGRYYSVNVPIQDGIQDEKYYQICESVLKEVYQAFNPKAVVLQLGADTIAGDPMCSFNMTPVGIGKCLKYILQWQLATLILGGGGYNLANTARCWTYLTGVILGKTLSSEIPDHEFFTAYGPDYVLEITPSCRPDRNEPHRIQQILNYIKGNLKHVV
Procedure: (§1) HDAC8 mutant variants were generated, produced, and further purified as described previously.[32] Cysteines 28 and 314 were exchanged with serine using the following primer pairs: HD8_C28S_for, […]; HD8_C28S_rev, […]; HD8_C314S_for, […]; HD8_C314S_rev, […].
(§2) The enzyme activity assay was performed in assay buffer [25 mM Tris-HCl (pH 8.0), 50 mM NaCl, and 0.001% (v/v) Pluronic F-68] in black half-area 96-well microplates (Greiner Bio-One). For the initial screening, 10 nM HDAC8 was preincubated with the indicated compounds at 250 μM for 2 h at 30 °C. […] The reaction was initiated by the addition of 20 μM Boc-Lys(TFA)-AMC (Bachem). After substrate conversion at 30 °C for 15 min for HDAC8 and 1 h for HDAC8 mutants and HDAC4, the reaction was stopped by adding 1.67 μM suberoylanilide trifluoromethylketone (SATFMK). The deacetylated substrate was cleaved with 0.42 mg/mL trypsin to release fluorescent 7-amino-4-methylcoumarin (AMC), which was detected with a microplate reader (PHERAstar FS […]) with fluorescence excitation at 360 nm and emission at 460 nm. IC50 values were calculated by generating dose–response curves in GraphPad Prism 6 and fitting those to a four-parameter logistic model.

[2] = target: T2, HDAC8 Cys102Ser/Cys153Ser/Cys244Ser (Homo sapiens, UniProt Q9BY41, C102S/C153S/C244S); settings: read-out: IC50 [μM] @ 100 nM HDAC8: E Cys102Ser/Cys153Ser/Cys244Ser, 1 h preincubation
T2 construct: made in house
T2 sequence (Q9BY41 1-377 C102S/C153S/C244S): T1 sequence (Q9BY41 1-377 C102S/C131S/C153S) with S131C, C244S
Procedure: as §1, §2

[3] = target: T3, HDAC8 Cys102Ser/Cys153Ser/Cys287Ser (Homo sapiens, UniProt Q9BY41, C102S/C153S/C287S); settings: read-out: IC50 [μM] @ 100 nM HDAC8: G Cys102Ser/Cys153Ser/Cys287Ser, 1 h preincubation
T3 construct: made in house
T3 sequence (Q9BY41 1-377 C102S/C153S/C287S): T1 sequence (Q9BY41 1-377 C102S/C131S/C153S) with S131C, C287S
Procedure: as §1, §2

[4] = target: T4, HDAC8 Cys102Ser/Cys153Ser/Cys352Ser (Homo sapiens, UniProt Q9BY41, C102S/C153S/C352S); settings: read-out: IC50 [μM] @ 100 nM HDAC8: I Cys102Ser/Cys153Ser/Cys352Ser, 1 h preincubation
T4 construct: made in house
T4 sequence (Q9BY41 1-377 C102S/C153S/C352S): T1 sequence (Q9BY41 1-377 C102S/C131S/C153S) with S131C, C352S
Procedure: as §1, §2

| Compound | IC50 [1] | IC50 [2] | IC50 [3] | IC50 [4] |
| --- | --- | --- | --- | --- |
| C[n+]1ccccc1I [A3+] | 42 ± 4 µM | > 130 µM | > 130 µM | 36 ± 2 µM |
| C[n+]1ccc(I)cc1 [C3+] | 36 ± 8 µM | > 130 µM | > 130 µM | 29 ± 2 µM |
| C#Cc1cc[n+](C)cc1 [C6+] | 3.3 ± 0.3 µM | 24 ± 3 µM | 34 ± 2 µM | 9 ± 1 µM |
| C[n+]1cccnc1Cl [D1+] | 49 ± 6 µM | > 130 µM | > 130 µM | 41 ± 7 µM |
| C[n+]1cccnc1Br [D2+] | 18 ± 4 µM | > 130 µM | > 130 µM | 15 ± 2 µM |
| C[n+]1cccnc1I [D3+] | 8 ± 1 µM | 40 ± 6 µM | 51 ± 7 µM | 11 ± 1 µM |
| C#Cc1nccc[n+]1C [D6+] | 93 ± 13 µM | > 130 µM | > 130 µM | 118 ± 13 µM |
| C[n+]1cncc(Br)c1 [F2+] | 25 ± 2 µM | 87 ± 7 µM | 95 ± 8 µM | 15 ± 1 µM |
| C[n+]1cncc(I)c1 [F3+] | 15 µM | 26 ± 4 µM | > 130 µM | 29 ± 6 µM |
| C#Cc1c[n+](C)ccn1 [G6+] | 55 ± 12 µM | 100 ± 12 µM | 73 ± 6 µM | 59 ± 3 µM |
